Source: patent US6544756B1, “Sorbitol dehydrogenase, microorganism for producing same, process for the production thereof, method for the measurement of sorbitol and reagent for the quantitative determination therefor” (Unitika Ltd., priority 1999, dated 2003)

Columns and labels:
Type in all cases: biochemical
[1] = tested on: sorbitol dehydrogenase derived from Pseudomonas fluorescens A-654 strain; assay: Substrate specificity (Vmax/Km, Km) of sorbitol dehydrogenase from A-654 strain; details: enzyme from Pseudomonas fluorescens A-654; for Vmax/Km: relative to D-sorbitol taken as 100
Protocol: (§1) The sorbitol dehydrogenase of the invention has the foregoing physicochemical properties. In the present invention, the measurement of the activity of sorbitol dehydrogenase was carried out by adding an enzyme solution to a 80 mM Tris-HCl buffer (pH 9.0) containing 50 mM of D-sorbitol and 2 mM of NAD^+, slowly mixing them, and then measuring the change of absorbance at 340 nm by means of a spectrophotometer. The measurement was made at a temperature of 30° C. The amount of enzyme required to produce 1 μmol of NADH per minute was defined to be 1 unit (U).
(§2) (2) Substrate specificity: The Vmax/Km of the sorbitol dehydrogenase of the invention with respect to various substrates (relative to that with respect to D-sorbitol taken as 100) is about 40 or less for galactitol and about 3 or less for iditol, preferably about 30 or less for galactitol and about 2 or less for iditol. The Km for D-sorbitol is about 6 mM or less, preferably about 4 mM or less. Among the sorbitol dehydrogenases of the invention, the substrate specificities of those derived from Flavimonas oryzihabitans A-520 strain, Pseudomonas fluorescens A-989 strain and Pseudomonas fluorescens A-654 strain are shown in Table 2 below.
(§3) Vmax means the maximum velocity of the reaction at the saturated substrate concentration and Km means the Michaelis constant. The Vmax/Km values indicates the apparent […] of the enzyme reaction as a whole, which is generally used as an index for reflecting the substrate specificity. These values may be measured and calculated in accordance with the methods described in Chapter 8 of Biochemistry, second edition, by Albert Lehninger, 1975, Worth Publishers, Inc. or in Enzyme Structure and Mechanism, second edition, by Alan Fersht, 1984, W. H. Freeman & Co.

[2] = tested on: sorbitol dehydrogenase derived from Flavimonas oryzihabitans A-520 strain; assay: Substrate specificity (Vmax/Km, Km) of sorbitol dehydrogenase from A-520 strain; details: enzyme from Flavimonas oryzihabitans A-520; for Vmax/Km: relative to D-sorbitol taken as 100
Protocol: as §1, §2, §3

[3] = tested on: sorbitol dehydrogenase derived from Pseudomonas fluorescens A-989 strain; assay: Substrate specificity (Vmax/Km, Km) of sorbitol dehydrogenase from A-989 strain; details: enzyme from Pseudomonas fluorescens A-989; for Vmax/Km: relative to D-sorbitol taken as 100
Protocol: as §1, §2, §3

Compound	Vmax/Km [1] [%]	Vmax/Km [2] [%]	Vmax/Km [3] [%]	Km [1] [µM]	Km [2] [µM]	Km [3] [µM]
OC[C@@H](O)[C@H](O)[C@@H](O)CO [Xylitol, xylitol]	0	0	0			
OC[C@@H](O)[C@@H](O)[C@H](O)[C@H](O)CO [Mannitol, D-mannitol]	0	0	0			
OC[C@H](O)[C@@H](O)[C@H](O)[C@@H](O)CO [Iditol, L-iditol]	1.55	1.99	2.78			
OC[C@@H](O)C(O)[C@H](O)CO [Arbitol, D-arabitol]	0	0	0			
OC[C@@H](O)[C@@H](O)[C@H](O)[C@@H](O)CO [Sorbitol, D-sorbitol]	100	100	100	3500	2500	5900
OC[C@@H](O)[C@H](O)[C@H](O)[C@@H](O)CO [Galactitol]	31.9	28.9	36.8	2000	1900	3100
O=C[C@H](O)[C@@H](O)[C@H](O)[C@H](O)CO [D-Glucose, D-glucose]	0	0	0			
